In PubChem BioAssay AID210 (DTP/NCI, 2004):
Toxic doses and inconclusive results are not listed.

Tested on: CD2F1 mice, ip Colon 26 adenocarcinoma, median survival T/C
Test: NCI In Vivo Anticancer Drug Screen. Data for tumor model Colon 26 Adenocarcinoma (intraperitoneal) in CD2F1 (CDF1) mice
Conditions: endpoint: median survival time, higher = longer survival
Experimental: The antitumor activity of compounds was measured in mice bearing transplantable tumors. Survival or tumor size were measured and the results are expressed as the measurement made in the treated group (T) divided by the measurement made in the vehicle treated control group (C). The tumor model used in this assay is Colon 26 Adenocarcinoma (intraperitoneal) in CD2F1 (CDF1) mice

COc1cc2oc(=O)ccc2cc1[C@@H]1OC(=O)C2(C)O[C@@H]12 (stereo not given in full)
T/C (dose: 0.15 mg/kg/injection, schedule: Q01DX009 (ip), vehicle: water): 91 % of control
T/C (dose: 0.31 mg/kg/injection, schedule: Q01DX009 (ip), vehicle: water): 106 % of control
T/C (dose: 0.62 mg/kg/injection, schedule: Q01DX009 (ip), vehicle: water): 111 % of control
T/C (dose: 1.25 mg/kg/injection, schedule: Q01DX009 (ip), vehicle: water): 94 % of control
T/C (dose: 2.5 mg/kg/injection, schedule: Q01DX009 (ip), vehicle: water): 88 % of control
T/C (dose: 5.0 mg/kg/injection, schedule: Q01DX009 (ip), vehicle: water): 90 % of control
T/C (dose: 10.0 mg/kg/injection, schedule: Q01DX009 (ip), vehicle: water): 102 % of control

COC12[C@@H]3N[C@@H]3CN1C1=C(C(=O)C(NCCSSCCNC3=C(C)C(=O)C4=C(C3=O)C(COC(N)=O)[C@]3(OC)C5N[C@@H]5CN43)=C(C)C1=O)[C@@H]2COC(N)=O (stereo not given in full)
T/C (dose: 1.0 mg/kg/injection, schedule: Q01DX004 (ip), vehicle: other): 94 % of control
T/C (dose: 2.0 mg/kg/injection, schedule: Q01DX004 (ip), vehicle: other): 99 % of control
T/C (dose: 2.0 mg/kg/injection, schedule: Q03DX002 (ip), vehicle: other): 100 % of control
T/C (dose: 4.0 mg/kg/injection, schedule: Q01DX004 (ip), vehicle: other): 107 % of control
T/C (dose: 4.0 mg/kg/injection, schedule: Q03DX002 (ip), vehicle: other): 117 % of control
T/C (dose: 6.0 mg/kg/injection, schedule: Q01DX004 (ip), vehicle: other): 101 % of control
T/C (dose: 6.0 mg/kg/injection, schedule: Q01DX005 (ip), vehicle: other): 96 % of control
T/C (dose: 9.0 mg/kg/injection, schedule: Q01DX005 (ip), vehicle: other): 96 % of control
T/C (dose: 9.0 mg/kg/injection, schedule: Q03DX002 (ip), vehicle: other): 110 % of control
T/C (dose: 15.0 mg/kg/injection, schedule: Q01DX005 (ip), vehicle: other): 106 % of control

O=C1c2ccccc2C(=O)c2c(NCCNCCO)ccc(O)c21
T/C (dose: 1.88 mg/kg/injection, schedule: Q01DX009 (ip), vehicle: acid diluted with saline): 162 % of control
T/C (dose: 2.0 mg/kg/injection, schedule: Q01DX009 (ip), vehicle: acid diluted with saline): 152 % of control
T/C (dose: 3.75 mg/kg/injection, schedule: Q01DX009 (ip), vehicle: acid diluted with saline): 177 % of control
T/C (dose: 4.0 mg/kg/injection, schedule: Q01DX009 (ip), vehicle: acid diluted with saline): 212 % of control
T/C (dose: 7.5 mg/kg/injection, schedule: Q01DX009 (ip), vehicle: acid diluted with saline): 196 % of control
T/C (dose: 8.0 mg/kg/injection, schedule: Q01DX009 (ip), vehicle: acid diluted with saline): 245 % of control
T/C (dose: 15.0 mg/kg/injection, schedule: Q01DX009 (ip), vehicle: acid diluted with saline): 182 % of control
T/C (dose: 16.0 mg/kg/injection, schedule: Q01DX009 (ip), vehicle: acid diluted with saline): 263 % of control

CC1(C(=O)O)C(O)CCC2(C)C1CCC1CC3CC12CCC3(O)CO (stereo not given)
T/C (dose: 2.5 mg/kg/injection, schedule: Q04DX002 (ip), vehicle: saline with Tween-80): 92 % of control
T/C (dose: 5.0 mg/kg/injection, schedule: Q04DX002 (ip), vehicle: saline with Tween-80): 98 % of control
T/C (dose: 10.0 mg/kg/injection, schedule: Q04DX002 (ip), vehicle: saline with Tween-80): 106 % of control
T/C (dose: 20.0 mg/kg/injection, schedule: Q04DX002 (ip), vehicle: saline with Tween-80): 95 % of control
T/C (dose: 40.0 mg/kg/injection, schedule: Q04DX002 (ip), vehicle: saline with Tween-80): 100 % of control
T/C (dose: 80.0 mg/kg/injection, schedule: Q04DX002 (ip), vehicle: saline with Tween-80): 101 % of control
T/C (dose: 100.0 mg/kg/injection, schedule: Q04DX002 (ip), vehicle: distilled water + Tween-80): 94 % of control
T/C (dose: 200.0 mg/kg/injection, schedule: Q04DX002 (ip), vehicle: distilled water + Tween-80): 97 % of control

N[C@H](C(=O)O)[C@@H]1CC(Cl)=NO1
T/C (dose: 1.0 mg/kg/injection, schedule: Q04DX003 (ip), vehicle: saline): 102 % of control
T/C (dose: 2.0 mg/kg/injection, schedule: Q04DX003 (ip), vehicle: saline): 105 % of control
T/C (dose: 4.0 mg/kg/injection, schedule: Q04DX003 (ip), vehicle: saline): 107 % of control
T/C (dose: 8.0 mg/kg/injection, schedule: Q04DX003 (ip), vehicle: saline): 103 % of control
T/C (dose: 16.0 mg/kg/injection, schedule: Q04DX003 (ip), vehicle: saline): 110 % of control
T/C (dose: 32.0 mg/kg/injection, schedule: Q04DX003 (ip), vehicle: saline): 107 % of control

Nc1ncnc2c1ncn2C1OC(CO)CC1O (stereo not given)
T/C (dose: 37.5 mg/kg/injection, schedule: Q04DX002 (ip), vehicle: Klucel (hydroxypropylcellulose) (HPC)): 101 % of control
T/C (dose: 75.0 mg/kg/injection, schedule: Q04DX002 (ip), vehicle: Klucel (hydroxypropylcellulose) (HPC)): 110 % of control
T/C (dose: 150.0 mg/kg/injection, schedule: Q04DX002 (ip), vehicle: Klucel (hydroxypropylcellulose) (HPC)): 93 % of control

Cc1cn(C2CC3[O][Sn]([c]4ccccc4)([c]4ccccc4)[O]CC3O2)c(=O)[nH]c1=O (stereo not given)
T/C (dose: 25.0 mg/kg/injection, schedule: Q04DX002 (ip), vehicle: saline): 96 % of control
T/C (dose: 50.0 mg/kg/injection, schedule: Q04DX002 (ip), vehicle: saline): 103 % of control
T/C (dose: 100.0 mg/kg/injection, schedule: Q04DX002 (ip), vehicle: saline): 112 % of control
